Data reported in patent publication EP0080051A2, “Heterocyclic compounds and antibacterial and antifungal compositions containing the same as active ingredients” (MEIJI SEIKA KAISHA LTD., priority 1981, dated 1983).
Converted amounts (≈) assume the structure as drawn. Where two headings read alike, the source gives them in different places.

Tests used:
[1] = mouse, p.o.
[2] = system: Staphylococcus epidermidis ATCC 14990; assay: Antibacterial activity (in medicinal field), MIC; assay type: cell-based; conditions: ATCC14990, read-out: Minimal Inhibitory Conc. (MIC)
[3] = system: Proteus vulgaris OX-19; assay: Antibacterial activity (in medicinal field), MIC; assay type: cell-based; conditions: OX19, read-out: Minimal Inhibitory Conc. (MIC)
[4] = system: Pseudomonas cepacia M-0527; assay: Antibacterial activity (in medicinal field), MIC; assay type: cell-based; conditions: Burkholderia cepacia, M0527, read-out: Minimal Inhibitory Conc. (MIC)
[5] = system: Escherichia coli NIHJ JC-2; assay: Antibacterial activity (in medicinal field), MIC; assay type: cell-based; conditions: NIHJJC2, read-out: Minimal Inhibitory Conc. (MIC)
[6] = system: Salmonella typhi O-901-W; assay: Antibacterial activity (in medicinal field), MIC; assay type: cell-based; conditions: Salmonella enterica, read-out: Minimal Inhibitory Conc. (MIC)
[7] = system: Klebsiella pneumoniae PCI-602; assay: Antibacterial activity (in medicinal field), MIC; assay type: cell-based; conditions: PCI602, read-out: Minimal Inhibitory Conc. (MIC)
[8] = system: Citrobacter freundii GN-346; assay: Antibacterial activity (in medicinal field), MIC; assay type: cell-based; conditions: GN346, read-out: Minimal Inhibitory Conc. (MIC)
[9] = system: Bacillus anthracis No. 109; assay: microbe, parasite or virus in culture; assay type: cell-based; conditions: NO.109, read-out: Minimal Inhibitory Conc. (MIC)
[10] = system: Staphylococcus faecalis ATCC 8043; assay: Antibacterial activity (in medicinal field), MIC; assay type: cell-based; conditions: ATCC8043, read-out: Minimal Inhibitory Conc. (MIC)
[11] = system: Serratia marcescens MB-3848; assay: Antibacterial activity (in medicinal field), MIC; assay type: cell-based; conditions: MB3848, read-out: Minimal Inhibitory Conc. (MIC)
[12] = system: Staphylococcus aureus 209P JC-1; assay: Antibacterial activity (in medicinal field), MIC; assay type: cell-based; conditions: read-out: Minimal Inhibitory Conc. (MIC)
[13] = system: Trichophyton mentagrophytes; assay: Therapeutic experiment: treatment of trichophytosis in guinea pigs; assay type: in vivo; conditions: 1 % preparation, 0.25 ml once per day over 8 consecutive days, visual observation of diseased skin
[14] = system: Shigella sonnei EW 33 Type I; assay: Antibacterial activity (in medicinal field), MIC; assay type: cell-based; conditions: EW33TYPEI, read-out: Minimal Inhibitory Conc. (MIC)

Question: What does the source list for O=[N+]([O-])c1ccn(CC#CI)c1 [1-(1'-iodopro-pyn-3'-yl)-3-nitropyrrole, 1-(1'-iodopropyn-3'-yl)-3-nitropyrrole]?
Answer: Acute Toxicity (survival) ([1]; Dosage 200 mg/kg): All animals survived; Acute Toxicity (survival) ([1]; Dosage 500 mg/kg): All animals survived; Acute Toxicity (survival) ([1]; Dosage 800 mg/kg): All animals survived

Question: With O=[N+]([O-])c1cn(CC#CI)c(Cl)c1Cl [1-(1'-iodopropyn-3'-yl)-2,3-dichloro-4-nitropyrrole] as the molecule, how does the “Acute Toxicity (survival)” value ([1]; Dosage 200 mg/kg) read?
Answer: All animals survived

Question: What about the “Acute Toxicity (survival)” value ([1]; Dosage 500 mg/kg) of the same molecule?
Answer: All animals survived

Question: What about the “Acute Toxicity (survival)” value ([1]; Dosage 800 mg/kg) of the same molecule?
Answer: All animals survived

Question: Which results are given for O=[N+]([O-])c1cn(CC(I)=C(I)I)c(Cl)c1Cl [1-(2',3',3'-triiodoallyl)-2,3-dichloro-4-nitropyrrole]?
Answer: MIC [2]: 31.2 µg/mL (≈ 52.1 µM); MIC [3]: 6.25 µg/mL (≈ 10.4 µM); MIC [4]: 6.25 µg/mL (≈ 10.4 µM); MIC [5]: 12.5 µg/mL (≈ 20.9 µM); MIC [6]: 12.5 µg/mL (≈ 20.9 µM); MIC [7]: 25 µg/mL (≈ 41.8 µM); MIC [8]: 12.5 µg/mL (≈ 20.9 µM); MIC [9]: 31.2 µg/mL (≈ 52.1 µM); MIC [10]: 31.2 µg/mL (≈ 52.1 µM); MIC [11]: 6.25 µg/mL (≈ 10.4 µM); Acute Toxicity (survival) ([1]; Dosage 100 mg/kg): All animals survived; Acute Toxicity (survival) ([1]; Dosage 200 mg/kg): All animals survived; Acute Toxicity (survival) ([1]; Dosage 800 mg/kg): All animals survived; MIC [12]: 31.2 µg/mL (≈ 52.1 µM); Therapeutic Effect: Desquamation [13]: effective; Therapeutic Effect: Redness [13]: prominently effective; Therapeutic Effect: Thickening [13]: effective; MIC [14]: 6.25 µg/mL (≈ 10.4 µM)

Question: What does the source list for O=[N+]([O-])c1cc(Cl)n(CC(I)=C(I)I)c1 [1-(2',3',3'-triiodoallyl)-2-chloro-4-nitropyrrole]?
Answer: MIC [2]: 6.25 µg/mL (≈ 11.1 µM); MIC [3]: 12.5 µg/mL (≈ 22.2 µM); MIC [4]: 12.5 µg/mL (≈ 22.2 µM); MIC [5]: 12.5 µg/mL (≈ 22.2 µM); MIC [6]: 12.5 µg/mL (≈ 22.2 µM); MIC [7]: 25 µg/mL (≈ 44.3 µM); MIC [8]: 12.5 µg/mL (≈ 22.2 µM); MIC [9]: 6.25 µg/mL (≈ 11.1 µM); MIC [10]: 6.25 µg/mL (≈ 11.1 µM); MIC [11]: 12.5 µg/mL (≈ 22.2 µM); MIC [12]: 6.25 µg/mL (≈ 11.1 µM); MIC [14]: 12.5 µg/mL (≈ 22.2 µM)

Question: With O=[N+]([O-])c1nccn1CC(I)=C(I)I [1-(2',3',3'-triiodoallyl)-2-nitroimidazole] as the molecule, how does the MIC [2] read?
Answer: 12.5 µg/mL (≈ 23.5 µM)

Question: And the MIC [3]?
Answer: 6.25 µg/mL (≈ 11.8 µM)

Question: And the MIC [4]?
Answer: 3.12 µg/mL (≈ 5.88 µM)

Question: And the MIC [5]?
Answer: 25 µg/mL (≈ 47.1 µM)

Question: And the MIC [6]?
Answer: 12.5 µg/mL (≈ 23.5 µM)

Question: And the MIC [7]?
Answer: 6.25 µg/mL (≈ 11.8 µM)

Question: And the MIC [8]?
Answer: 3.12 µg/mL (≈ 5.88 µM)

Question: What about the MIC [9] of the same molecule?
Answer: 6.25 µg/mL (≈ 11.8 µM)

Question: And the MIC [10]?
Answer: 25 µg/mL (≈ 47.1 µM)

Question: And the MIC [11]?
Answer: 25 µg/mL (≈ 47.1 µM)

Question: What about the MIC [12] of the same molecule?
Answer: 12.5 µg/mL (≈ 23.5 µM)

Question: What about the MIC [14] of the same molecule?
Answer: 3.12 µg/mL (≈ 5.88 µM)

Question: Which “Acute Toxicity (survival)” value ([1]; Dosage 100 mg/kg) does the source give for O=[N+]([O-])c1ccn(CC(I)=C(I)I)c1 [1-(2',3',3'-triiodoallyl)-3-nitropyrrole] here?
Answer: All animals survived

Question: What about the “Acute Toxicity (survival)” value ([1]; Dosage 200 mg/kg) of the same molecule?
Answer: All animals survived

Question: What about the “Acute Toxicity (survival)” value ([1]; Dosage 800 mg/kg) of the same molecule?
Answer: All animals survived

Question: And the “Therapeutic Effect: Desquamation” value [13]?
Answer: effective

Question: What about the “Therapeutic Effect: Redness” value [13] of the same molecule?
Answer: prominently effective

Question: What about the “Therapeutic Effect: Thickening” value [13] of the same molecule?
Answer: effective

Question: Which MIC [2] does the source give for IC(I)=C(I)Cn1ccnc1 [1-(2',3',3'-triiodoallyl)-imidazole, 1-(2',3',3'-Triiodoallyl)imidazole] here?
Answer: 12.5 µg/mL (≈ 25.7 µM)

Question: And the MIC [3]?
Answer: 12.5 µg/mL (≈ 25.7 µM)

Question: What about the MIC [4] of the same molecule?
Answer: 6.25 µg/mL (≈ 12.9 µM)

Question: And the MIC [5]?
Answer: 12.5 µg/mL (≈ 25.7 µM)

Question: And the MIC [6]?
Answer: 12.5 µg/mL (≈ 25.7 µM)

Question: What about the MIC [7] of the same molecule?
Answer: 12.5 µg/mL (≈ 25.7 µM)

Question: And the MIC [8]?
Answer: 12.5 µg/mL (≈ 25.7 µM)

Question: And the MIC [9]?
Answer: 12.5 µg/mL (≈ 25.7 µM)

Question: What about the MIC [10] of the same molecule?
Answer: 25 µg/mL (≈ 51.5 µM)

Question: What about the MIC [11] of the same molecule?
Answer: 12.5 µg/mL (≈ 25.7 µM)

Question: And the MIC [12]?
Answer: 12.5 µg/mL (≈ 25.7 µM)

Question: What about the MIC [14] of the same molecule?
Answer: 6.5 µg/mL (≈ 13.4 µM)

Question: For Clc1ccccc1C(c1ccccc1)(c1ccccc1)n1ccnc1 [chlotri-mazol, 1-(O-chloro-d, a-diphenylbenzyl) imidazole, reference compound], which “Therapeutic Effect: Desquamation” value [13] is on record?
Answer: effective

Question: What about the “Therapeutic Effect: Redness” value [13] of the same molecule?
Answer: in-effective

Question: And the “Therapeutic Effect: Thickening” value [13]?
Answer: effective

Question: For O=[N+]([O-])c1c(Cl)cccc1-c1c[nH]cc1Cl [pyrrolni-trin, 3-chloro-4-(2'-nitro-3'-chlorophenyl)pyrrole, reference compound], which “Therapeutic Effect: Desquamation” value [13] is on record?
Answer: in-effective

Question: What about the “Therapeutic Effect: Redness” value [13] of the same molecule?
Answer: in-effective

Question: And the “Therapeutic Effect: Thickening” value [13]?
Answer: effective
